Test results from ChEMBL document CHEMBL4706539 (Eur J Med Chem, 2020).
pIC50: −log10 of the molar value. Active and inactive are the calls of the source. No cut-off for these calls is given here.

Assays:
[1] = system: COLO357; test: Antiproliferative activity against human COLO357 cells assessed as reduction in cell growth incubated for 72 hrs by MTT assay; type: functional, cell-based; settings: COLO357, 72 h
[2] = system: Raji; test: Antiproliferative activity against human Raji cells assessed as reduction in cell growth incubated for 72 hrs by MTT assay; type: functional, cell-based
[3] = system: HEK293; test: Cytotoxicity against human HEK293 cells assessed as reduction in cell growth incubated for 72 hrs by MTT assay; type: cell-based; settings: HEK293, 72 h
[4] = system: SW-620; test: Antiproliferative activity against human SW-620 cells assessed as reduction in cell growth incubated for 72 hrs by MTT assay; type: functional, cell-based; settings: SW-620, 72 h
[5] = system: HeLa; test: cells; settings: Homo sapiens, 72 h
Description: Antiproliferative activity against human HeLa cells assessed as reduction in cell growth incubated for 72 hrs by MTT assay

[6] = system: PANC-1; test: Antiproliferative activity against human PANC-1 cells assessed as reduction in cell growth incubated for 72 hrs by MTT assay; type: functional, cell-based; settings: PANC-1, 72 h
[7] = system: HaCaT; test: Cytotoxicity against human HaCat cells assessed as reduction in cell growth incubated for 72 hrs by MTT assay; type: cell-based
[8] = Acute toxicity in iv dosed CBA mouse assessed as mouse death at 5 mg/kg, iv measured after 16 hrs; type: organism-based; settings: in vivo
[9] = Acute toxicity in C57BL/6 mouse assessed as mouse death at 5 mg/kg, iv measured after 16 hrs; type: organism-based; settings: in vivo
[10] = Acute toxicity in iv dosed CD-1 mouse assessed as mouse death at 5 mg/kg, iv measured after 16 hrs; type: organism-based; settings: in vivo
[11] = Acute toxicity in iv dosed BALB/c mouse assessed as mouse death at 5 mg/kg, iv measured after 16 hrs; type: organism-based; settings: in vivo
[12] = Acute toxicity in iv dosed A/Sn mouse assessed as mouse death at 5 mg/kg, iv measured after 16 hrs; type: organism-based; settings: in vivo
[13] = Acute toxicity in iv dosed C57BL/6 mouse assessed as lethal dose; type: organism-based; settings: in vivo
[14] = system: SW-620; test: Induction of cell cycle arrest in human SW-620 cells assessed as accumulation at G1 phase at 5 nM incubated for 48 hrs by RNase/PI staining based flow cytometry analysis (reference value: 65 %); type: functional
[15] = system: COLO357; test: Induction of cell cycle arrest in human COLO357 cells assessed as accumulation at apoptotic phase at 5 nM incubated for 48 hrs by RNase/PI staining based flow cytometry analysis (reference value: 1.3 %); type: functional
[16] = molecular target: T1, Tubulin (Homo sapiens) (UniProt P68371+Q9H4B7+P0DPH7+P68366+Q13509+Q71U36+P04350+Q3ZCM7+P07437+P68363+Q9BQE3+Q6PEY2+Q13885+Q9BVA1+Q9BUF5); test: Inhibition of tubulin assembly in human COLO357 cells assessed as disruption of mitotic spindle at 5 nM incubated for 24 hrs by Hoechst 33342 staining based confocal microscopic analysis; type: cell-based
[17] = system: SW-620; test: Induction of cell cycle arrest in human SW-620 cells assessed as accumulation at apoptotic phase at 5 nM incubated for 48 hrs by RNase/PI staining based flow cytometry analysis (reference value: 0.8 %); type: functional
[18] = system: COLO357; test: Induction of cell cycle arrest in human COLO357 cells assessed as accumulation at G1 phase at 5 nM incubated for 48 hrs by RNase/PI staining based flow cytometry analysis (reference value: 72 %); type: functional
[19] = system: COLO357; test: Induction of cell cycle arrest in human COLO357 cells assessed as accumulation at G2/M phase at 5 nM incubated for 48 hrs by RNase/PI staining based flow cytometry analysis (reference value: 13 %); type: functional
[20] = molecular target: T1, Tubulin (Homo sapiens); test: Inhibition of tubulin assembly in human SW-620 cells assessed as induction of chromosome disturbance at 5 nM incubated for 24 hrs by Hoechst 33342 staining based confocal microscopic analysis; type: cell-based
[21] = molecular target: T1, Tubulin (Homo sapiens); test: Inhibition of tubulin assembly in human COLO357 cells assessed as induction of chromosome disturbance at 5 nM incubated for 24 hrs by Hoechst 33342 staining based confocal microscopic analysis; type: cell-based
[22] = Acute toxicity in C57BL/6 mouse assessed as mouse death at 10 mg/kg, iv; type: organism-based; settings: in vivo
[23] = molecular target: T1, Tubulin (Homo sapiens); test: Inhibition of tubulin assembly in human SW-620 cells assessed as disruption of mitotic spindle at 5 nM incubated for 24 hrs by Hoechst 33342 staining based confocal microscopic analysis; type: cell-based
[24] = molecular target: T1, Tubulin (Homo sapiens); test: Inhibition of tubulin assembly in human COLO357 cells assessed as induction of tubulin dissipation at 5 nM incubated for 24 hrs by Hoechst 33342 staining based confocal microscopic analysis; type: cell-based
[25] = species on record: Ovis aries; test: Inhibition of lamb brain tubulin polymerization assessed as reduction in microtubule assembly at 0.5 to 5 uM incubated for 40 mins at […] by spectrophotometric analysis relative to control; type: tissue-based; settings: dose 0.5-5 µM
[26] = system: SW-620; test: Induction of cell cycle arrest in human SW-620 cells assessed as accumulation at G2/M phase at 5 nM incubated for 48 hrs by RNase/PI staining based flow cytometry analysis (reference value: 16 %); type: functional
[27] = molecular target: T1, Tubulin (Homo sapiens); test: Inhibition of tubulin assembly in human SW-620 cells assessed as induction of tubulin dissipation at 5 nM incubated for 24 hrs by Hoechst 33342 staining based confocal microscopic analysis; type: cell-based
[28] = Acute toxicity in mouse assessed as lethal dose measured after 7 days; settings: in vivo, time 7 day

| Compound | pIC50 [1] | pIC50 [2] | pIC50 [3] | pIC50 [4] | pIC50 [5] | pIC50 [6] | pIC50 [7] | further results |
| --- | --- | --- | --- | --- | --- | --- | --- | --- |
| COC(=O)/C=C/c1cc2c(cc1O)[C@@H](NC(C)=O)CCc1cc(OC)c(OC)c(OC)c1-2 | < 5.40 | < 5.40 | < 5.40 | < 5.40 |  |  |  |  |
| C/C=C/C(=O)Oc1cc2c(cc1I)-c1c(cc(OC)c(OC)c1OC)CC[C@@H]2NC(C)=O | 6.79 | 6.86 | < 5.40 | 8.40 |  |  |  |  |
| C=CC(=O)Oc1cc2c(cc1I)-c1c(cc(OC)c(OC)c1OC)CC[C@@H]2NC(C)=O | 6.82 | 7.49 | 6.80 | 7.52 |  |  |  |  |
| C/C=C1/COc2cc3c(cc21)-c1c(cc(OC)c(OC)c1OC)CC[C@@H]3NC(C)=O | 8.30 | 8.42 | 8.42 | 8.22 | 7.49 | 7.49 | 7.85 |  |
| C=C1c2cc3c(cc2OC1(F)F)[C@@H](NC(C)=O)CCc1cc(OC)c(OC)c(OC)c1-3 | 10.70 | 10.30 | 10.52 | 10.40 | 10.52 | 11.00 | 10.52 | Activity [8]: Non-Toxic; Activity [9]: Non-Toxic; Activity [10]: Non-Toxic; Activity [11]: Non-Toxic; Activity [12]: Non-Toxic; LD50 [13]: > 10 mg/kg |
| COc1cc2c(c(OC)c1OC)-c1cc3c(cc1[C@@H](NC(C)=O)CC2)OC/C3=C(\C)CCC=C(C)C | 5.36 | 6.10 | 5.37 | < 4.70 | 5.37 | 6.09 | 5.35 |  |
| C=C1COc2cc3c(cc21)-c1c(cc(OC)c(OC)c1OC)CC[C@@H]3NC(C)=O | 10.40 | 10.52 | 10.10 | 10.70 | 8.77 | 10.10 | 9.52 | Activity [14]: 12%; Activity [15]: 2%; inhibition [16]: Active; Activity [17]: 4%; Activity [18]: 18%; Activity [8]: Non-Toxic; Activity [9]: Non-Toxic; Activity [10]: Non-Toxic; Activity [11]: Non-Toxic; Activity [19]: 77%; inhibition [20]: Active; inhibition [21]: Active; Activity [22]: Toxic; inhibition [23]: Active; inhibition [24]: Active; inhibition [25]: 50%; Activity [26]: 76%; inhibition [27]: Active; Activity [12]: Non-Toxic; LD50 [13]: 10 mg/kg |
| CC/C=C1/COc2cc3c(cc21)-c1c(cc(OC)c(OC)c1OC)CC[C@@H]3NC(C)=O | 6.10 | 7.05 | 6.78 | 6.09 | 6.82 | 7.10 | 6.87 |  |
| COc1cc2c(c(OC)c1OC)-c1cc(I)c(OC(=O)C=C(C)C)cc1[C@@H](NC(C)=O)CC2 | 6.80 | 6.80 | 6.09 | 7.49 |  |  |  |  |
| COc1cc2c(c(OC)c1OC)-c1cc3c(C)cc(=O)oc3cc1[C@@H](NC(C)=O)CC2 | 6.80 | 7.80 | 7.49 | 6.85 |  |  |  |  |
| COc1cc2c(c(OC)c1OC)-c1cc(I)c(OC(=O)/C=C/C(F)(F)F)cc1[C@@H](NC(C)=O)CC2 | 7.52 | 6.74 | 6.77 | 8.22 |  |  |  |  |
| COc1cc2c(c(OC)c1OC)-c1cc3c(C)coc3cc1[C@@H](NC(C)=O)CC2 | 8.89 | 8.89 | 8.30 | 8.89 | 9.10 | 8.68 | 9.30 |  |
| COc1cc2c(c(OC)c1OC)-c1cc3c(cc1[C@@H](NC(C)=O)CC2)OCC3=C(C)C | 6.07 | 6.38 | 6.40 | 6.11 | 6.39 | 6.07 | 6.41 |  |
| COc1cc2c(c(OC)c1OC)-c1ccc(OC)c(=O)cc1[C@@H](NC(C)=O)CC2 [COLCHICINE] |  | 7.80 |  | 8.62 | 8.89 | 10.00 | 9.52 | Activity [14]: 7.4%; Activity [15]: 2%; Activity [17]: 8.1%; Activity [18]: 62%; Activity [8]: Toxic; Activity [9]: Toxic; Activity [10]: Toxic; Activity [11]: Toxic; Activity [19]: 31%; LD50 at 168 h [28]: 1.6 mg/kg; Activity [26]: 74%; Activity [12]: Toxic |
| COc1cc2c(c(OC)c1OC)-c1cc(I)c(OC(=O)/C=C/Cl)cc1[C@@H](NC(C)=O)CC2 | 6.09 | 6.08 | 6.09 | 6.10 |  |  |  |  |
| COc1cc(-c2cc(=O)oc3cc4c(cc23)-c2c(cc(OC)c(OC)c2OC)CC[C@@H]4NC(C)=O)ccc1O | 6.06 | 6.08 | 5.40 | 6.80 |  |  |  |  |
| COc1cc2c(c(OC)c1OC)-c1cc3c(cc1[C@@H](NC(C)=O)CC2)OC/C3=C\c1ccccc1 | < 4.70 | 5.34 | < 4.70 | < 4.70 | 5.40 | < 4.70 | 5.36 |  |
| COC(=O)Cc1coc2cc3c(cc12)-c1c(cc(OC)c(OC)c1OC)CC[C@@H]3NC(C)=O | 6.08 | 5.41 | 5.35 | 5.39 | 6.09 | 6.09 | 6.09 |  |
